“Also recorded” adds a separate entry of the source. Like-named read-outs stand apart in the source and are kept apart here.
Key:
[1] = biological target: recombinant P. falciparum PMX (Plasmodium falciparum, UniProt Q8IAS0); assay: Recombinant P. falciparum PMX inhibition assay (fluorogenic substrate Rh2N); assay type: biochemical
Experimental: The fluorescence of this peptide is quenched by the spatial proximity of the DABCYL/EDANS groups in the uncleaved peptide and is increased upon cleavage at the internal F–I bond. […] Control wells contained no inhibitor, and the plate was blanked against the substrate only in DB. […] All experiments were performed in duplicate.

[2] = Liver microsomal metabolic stability; assay type: in vitro ADME, mouse; settings: pooled liver microsomes, pH 7.4, mouse liver microsomes, 5 μM; for microsomal CLint at 1 h, 5 μM: read-out: microsomal stability CL(int)
Experimental: Microsomal stability assays are performed as described elsewhere.[41] Test compounds and pooled mouse liver microsomes are incubated in potassium phosphate buffer in the presence of the cofactor NADPH at 37 °C. Reaction mixtures (700 μL) contain a final concentration of 5 μM test compound, 0.05% DMSO, 0.5 mg/mL microsomes, and ∼0.7–0.9 mM NADPH in 100 mM potassium phosphate buffer at pH 7.4. Reactions are terminated by the addition of 100 μL of the reaction mixture to 900 μL of acetonitrile after 0, 5, 15, 30, 45, and 60 min of incubation. Samples were centrifuged, and the resultant supernatant was analyzed by ultra-performance liquid chromatography–tandem mass spectrometry (UPLC-MS/MS). The amount of remaining compound is calculated and compared to the initial amount of test compound (zero time point). Verapamil is used as a positive control, and samples prepared without cofactor NADPH are used as a negative control (0 and 60 min). The in vitro metabolic stability parameters (half-life value (t1/2) and intrinsic clearance value (Clint)) are calculated from the slope of the Ln of concentration remaining vs the time curve.

[3] = Plasma protein binding (rapid equilibrium dialysis); assay type: in vitro ADME; settings: pH 7.4, mouse plasma, 2 h at 37 °C
Experimental: Plasma protein binding was performed with rapid equilibrium dialysis (RED) device inserts containing a dialysis membrane with a molecular weight cut-off of 8000 Daltons. Inserts were placed in the single-use RED plate without prior preparation.
The test compound at a concentration of 5 μM was added to mouse plasma and dialyzed against phosphate-buffered saline (PBS, pH 7.4) for 2 h at 37 °C. Propranolol hydrochloride was used as a positive control (high PPB), and fluconazole was used as negative control (low PPB). After dialysis, the drug concentration in the buffer and plasma compartments was quantified by liquid chromatography and tandem mass spectrometry (LC-MS/MS) analysis.

PMIV = PMIV (Plasmodium falciparum, UniProt Q8IM16); assay: FRET-based PMIV inhibition assay; assay type: biochemical, P. falciparum
PMIV, sequence (Q8IM16 122-449): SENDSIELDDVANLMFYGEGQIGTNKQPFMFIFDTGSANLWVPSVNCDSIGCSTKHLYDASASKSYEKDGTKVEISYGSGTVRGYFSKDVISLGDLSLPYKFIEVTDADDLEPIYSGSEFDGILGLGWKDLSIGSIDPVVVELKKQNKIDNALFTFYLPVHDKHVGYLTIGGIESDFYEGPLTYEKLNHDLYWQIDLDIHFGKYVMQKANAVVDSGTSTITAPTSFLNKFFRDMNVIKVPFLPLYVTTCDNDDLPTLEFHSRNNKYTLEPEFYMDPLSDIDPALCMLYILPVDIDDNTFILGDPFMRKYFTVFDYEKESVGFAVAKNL
Experimental: (§1) A fluorescence resonance energy transfer (FRET)-based assay was performed to assess the ability of the compounds to inhibit PMIV, CatD, and BACE1. Serial dilutions of test compounds were dispensed in a white 96-well plate. […] The mixture was incubated for 20 min at 37 °C. […] IC50 values were calculated with GraphPad Prism 8.0 using the nonlinear regression, variable slope (four parameters). Compounds were tested in triplicate.

cathepsin D (CatD) = cathepsin D (CatD) (Homo sapiens, UniProt P07339); assay: FRET-based CatD inhibition assay (selectivity counter screen); assay type: biochemical
cathepsin D (CatD), sequence (P07339 65-412): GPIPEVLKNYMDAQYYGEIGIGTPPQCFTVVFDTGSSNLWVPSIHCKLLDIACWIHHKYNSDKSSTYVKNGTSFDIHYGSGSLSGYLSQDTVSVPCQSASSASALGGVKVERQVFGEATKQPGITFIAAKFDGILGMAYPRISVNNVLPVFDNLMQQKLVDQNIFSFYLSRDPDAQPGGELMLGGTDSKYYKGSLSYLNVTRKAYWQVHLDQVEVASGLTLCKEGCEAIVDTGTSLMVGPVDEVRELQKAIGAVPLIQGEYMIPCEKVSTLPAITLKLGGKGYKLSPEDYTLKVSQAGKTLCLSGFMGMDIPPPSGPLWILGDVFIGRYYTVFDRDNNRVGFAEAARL
Experimental: as §1

BACE1 = BACE1 (Homo sapiens, UniProt P56817); assay: FRET-based BACE1 inhibition assay (selectivity counter screen); assay type: biochemical
BACE1, sequence (P56817 46-501): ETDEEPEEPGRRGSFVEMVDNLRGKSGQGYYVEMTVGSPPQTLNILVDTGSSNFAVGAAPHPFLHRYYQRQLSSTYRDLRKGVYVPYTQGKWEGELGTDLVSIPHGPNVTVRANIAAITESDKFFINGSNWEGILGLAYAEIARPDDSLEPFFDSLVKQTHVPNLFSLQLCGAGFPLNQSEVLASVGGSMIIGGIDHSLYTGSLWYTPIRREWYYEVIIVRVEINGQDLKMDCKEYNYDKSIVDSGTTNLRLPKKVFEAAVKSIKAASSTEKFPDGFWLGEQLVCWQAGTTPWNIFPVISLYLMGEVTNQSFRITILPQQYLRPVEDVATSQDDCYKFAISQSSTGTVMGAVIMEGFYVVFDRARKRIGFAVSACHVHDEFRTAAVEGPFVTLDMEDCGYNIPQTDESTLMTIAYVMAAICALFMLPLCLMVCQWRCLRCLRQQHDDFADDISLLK
Experimental: as §1

[4] = tested on: P. falciparum Pf3D7^0087/N9; assay: In vivo efficacy against P. falciparum in the TAD PfalcHuMouse model; settings: three times a day for 4 days at 40 mg/kg, oral; 40 mg/kg
Experimental: Therapeutic efficacy studies were performed at TAD using a standardized humanized mouse model of P. falciparum malaria[31] with modifications.[34] […] The volume of injections was 1 and 0.7 mL for i.p. or i.v. inoculation, respectively.
The inoculum was obtained from peripheral blood of CO2-euthanized donor mice harboring 5–10% parasitemia.
Before drug administration, each infected mouse was randomly assigned to its corresponding treatment. […] The treatment was administered by oral gavage with 20G straight reusable feeding needles (Fine Science Tools GmbH) at 10 mL·kgbodyweight^–1 unless otherwise stated.
Parasitemia was measured in serial 2 μL of samples of tail blood by flow cytometry and expressed as the % of parasitized erythrocytes with respect to the total erythrocytes in circulation.
The clearance of parasitized erythrocytes from the peripheral blood of mice was assessed by measuring the parasite reduction ratio (PRR) calculated as the ratio between parasitemia at Day n + 2 divided by parasitemia at Day n for each individual of the study.
The parasiticidal effect of drugs in vivo was assessed by measuring the day of recrudescence (DoR) as described.[34] In short, DoR was defined as the day at which parasitemia after drug treatment reached the % parasitemia at treatment inception. Drug-treated mice were deemed cured if there was no detectable parasitemia 60 days after treatment.

[5] = recombinant PMX, read-out: PMX, nM (IC50)
[6] = Table 3, read-out: PMX, nM (as listed in Table 3)
[7] = Table 3, read-out: PMIV, nM (as listed in Table 3)

recombinant P. falciparum PMX, sequence (Q8IAS0 222-573): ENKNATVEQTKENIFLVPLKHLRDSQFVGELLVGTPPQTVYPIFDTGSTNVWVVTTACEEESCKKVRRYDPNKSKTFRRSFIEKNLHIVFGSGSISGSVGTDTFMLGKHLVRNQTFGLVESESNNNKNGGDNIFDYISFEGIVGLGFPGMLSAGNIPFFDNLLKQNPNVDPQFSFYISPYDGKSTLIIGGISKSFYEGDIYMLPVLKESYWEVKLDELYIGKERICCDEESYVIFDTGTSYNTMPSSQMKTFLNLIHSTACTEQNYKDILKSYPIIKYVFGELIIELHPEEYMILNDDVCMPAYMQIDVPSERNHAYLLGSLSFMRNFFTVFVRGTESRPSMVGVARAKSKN

Structure (SMILES)	IC50 [1, 5] [nM]	half-life at 1 h, 5 μM [2] [min]	microsomal CLint at 1 h, 5 μM [2] [µL/min/mg]	fraction unbound at 2 h, 5 µM [3]	IC50 [1] [nM]	IC50 (PMIV) [nM]	IC50 (PMIV; read-out: PMIV, nM (IC50)) [nM]	IC50 (cathepsin D (CatD)) [nM]	IC50 (BACE1) [nM]	reduction of PMX inhibitory potency ([1]; compared to analogue 7a) [fold]	half-life at 5 μM [2] [min]	effect on parasite burden [4]	IC50 [1, 6] [nM]	IC50 (PMIV; [7]) [nM]
CCCN(CCC)C(=O)c1cccc(C(=O)N[C@@H](Cc2ccccc2)[C@H](O)CNC(C)(C)c2cccc(OC)c2)c1 [6a]	6.2 ± 0.3	6.4	216	0.009										
COc1cccc(C(C)(C)NC[C@@H](O)[C@@H]2Cc3cccc(c3)OCCCCNC(=O)c3cccc(c3)C(=O)N2)c1 [7b, (S)-4-((R)-1-Hydroxy-2-((2-(3-methoxyphenyl)propan-2-yl)amino)ethyl)-7-oxa-3,12-diaza-1,6(1,3)-dibenzenacyclotridecaphane-2,13-dione]	11.2 ± 0.7	31.3	44.3	0.0274	4.1 ± 0.3	60 ± 3	510 ± 30	650 ± 30	910 ± 40					
COc1cccc(C(C)(C)NC[C@@H](O)[C@@H]2Cc3cccc(c3)OCCCCN(C)C(=O)c3cccc(c3)C(=O)N2)c1 [7c, (S)-4-((R)-1-Hydroxy-2-((2-(3-methoxyphenyl)propan-2-yl)amino)ethyl)-12-methyl-7-oxa-3,12-diaza-1,6(1,3)-dibenzenacyclotridecaphane-2,13-dione]	5.3 ± 3	16.9	81.9	0.0351	11.2 ± 0.7	510 ± 30	170 ± 20	320 ± 20	1030 ± 50					
COc1cccc(C(C)(C)NC[C@@H](O)[C@@H]2Cc3cccc(c3)OCCCCN(CCC(F)(F)F)C(=O)c3cccc(c3)C(=O)N2)c1 [7d, (S)-4-((R)-1-Hydroxy-2-((2-(3-methoxyphenyl)propan-2-yl)amino)ethyl)-12-(3,3,3-trifluoropropyl)-7-oxa-3,12-diaza-1,6(1,3)-dibenzenacyclotridecaphane-2,13-dione]	8.6 ± 2.4	20.4	67.9	0.0125	5.3 ± 3	170 ± 20	61 ± 4	230 ± 20	2100 ± 100					
COc1cccc(C(C)(C)NC[C@@H](O)[C@@H]2Cc3cccc(c3)OCCCCN(CC(C)(C)C)C(=O)c3cccc(c3)C(=O)N2)c1 [7e]	2.5 ± 0.2	13.7	101	0.0035	8.6 ± 2.4	61 ± 4	40	630	1900 ± 100					
COc1cccc(C(C)(C)NC[C@@H](O)[C@@H]2Cc3cccc(c3)OCCCCN(CCN(C)C)C(=O)c3cccc(c3)C(=O)N2)c1 [7f, (S)-12-(2-(Dimethylamino)ethyl)-4-((R)-1-hydroxy-2-((2-(3-methoxyphenyl)propan-2-yl)amino)ethyl)-7-oxa-3,12-diaza-1,6(1,3)-dibenzenacyclotridecaphane-2,13-dione]	16.7 ± 1.5			0.0695	2.5 ± 0.2	40	1730 ± 90	6800 ± 340	52400 ± 1600	4	> 120	only a weak effect on parasite burden; also recorded: measurable reduction in parasitemia		
CCCN1CCCCCOc2cccc(c2)C[C@@H]([C@H](O)CNC(C)(C)c2cccc(OC)c2)NC(=O)c2cccc(c2)C1=O [7g, (S)-4-((R)-1-Hydroxy-2-((2-(3-methoxyphenyl)propan-2-yl)amino)ethyl)-13-propyl-7-oxa-3,13-diaza-1,6(1,3)-dibenzenacyclotetradecaphane-2,14-dione]	6.9 ± 0.49	7.64	181	0.0079			190	1200	6000 ± 300				6.9 ± 0.49	190
CCCN1CCOc2cccc(c2)C[C@@H]([C@H](O)CNC(C)(C)c2cccc(OC)c2)NC(=O)c2cccc(c2)C1=O [7h]	6.8 ± 0.59	13.9	99.8	0.0384			200	600	1850 ± 90				6.8 ± 0.59	200
CCCN1CCOCCc2cccc(c2)C[C@@H]([C@H](O)CNC(C)(C)c2cccc(OC)c2)NC(=O)c2cccc(c2)C1=O [7i, (S)-4-((R)-1-Hydroxy-2-((2-(3-methoxyphenyl)propan-2-yl)amino)ethyl)-12-propyl-9-oxa-3,12-diaza-1,6(1,3)-dibenzenacyclotridecaphane-2,13-dione]	4.6 ± 0.07	8.39	165	0.0287			81 ± 4	1650 ± 80	22700 ± 1100				4.6 ± 0.07	81 ± 4

Source: publication PMC10424242, “Macrocyclic Peptidomimetic Plasmepsin X Inhibitors with Potent In Vitro and In Vivo Antimalarial Activity” (Journal of Medicinal Chemistry, 2023)
